Test results as given in patent publication US8791102B2, “Acetanilide sphingosine-1-phosphate receptor antagonists” (Exelixis, Inc., priority 2008, dated 2014).

Molecular target: T1, human S1P1 receptors (Homo sapiens, UniProt P21453)
T1 construct: host or cells: HEK293
Assay: S1P1R antagonist assay (fluorescent membrane potential dye, cAMP readout)
Type: cell-based
Details: HEK293 cells expressing human S1P1 receptors and CNG channel; 500 nM NECA; S1P1R agonist 10 nM; 90 minutes; read-out: EC50 or IC50 value

T1 sequence (P21453 whole entry): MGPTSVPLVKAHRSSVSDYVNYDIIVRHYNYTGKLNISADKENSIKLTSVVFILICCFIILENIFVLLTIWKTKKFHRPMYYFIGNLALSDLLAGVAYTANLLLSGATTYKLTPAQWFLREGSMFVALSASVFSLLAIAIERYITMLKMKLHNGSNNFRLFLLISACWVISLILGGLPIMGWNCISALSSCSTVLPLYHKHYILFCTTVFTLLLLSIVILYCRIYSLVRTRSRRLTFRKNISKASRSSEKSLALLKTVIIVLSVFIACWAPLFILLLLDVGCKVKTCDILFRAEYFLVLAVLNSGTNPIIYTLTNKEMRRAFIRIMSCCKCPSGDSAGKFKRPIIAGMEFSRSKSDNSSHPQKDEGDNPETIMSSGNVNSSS

`O=C(NC(COCc1ccccc1)C(=O)Nc1ccc(Oc2ccccc2)cc1)c1cccc(O)n1` (stereo not shown) [Compound 358, 6-hydroxy-N-(2-oxo-1-{[(phenylmethyl)oxy]methyl}-2-{[4-(phenyloxy)phenyl]amino}ethyl)pyridine-2-carboxamide] and `O=C(NC(COCc1ccccc1)C(=O)Nc1ccc(Oc2ccccc2)cc1)c1cc2ccccc2o1` (stereo not shown) [Compound 366, N-(2-oxo-1-{[(phenylmethyl)oxy]methyl}-2-{[4-(phenyloxy)phenyl]amino}ethyl)-1-benzofuran-2-carboxamide] cannot be ordered by IC50: > 1 µM for the first, > 1 µM for the second.

`CC(C(=O)NC(COCc1ccccc1)C(=O)Nc1ccc(Oc2ccccc2)cc1)c1ccccc1` (stereo not shown) [Compound 359, N-(2-oxo-1-{[(phenylmethyl)oxy]methyl}-2-{[4-(phenyloxy)phenyl]amino}ethyl)-2-phenylpropanamide] and `CO[C@H](C(=O)NC(COCc1ccccc1)C(=O)Nc1ccc(Oc2ccccc2)cc1)c1ccccc1` (stereo partly drawn) [Compound 381, N-(2-oxo-1-{[(phenylmethyl)oxy]methyl}-2-{[4-(phenyloxy)phenyl]amino}ethyl)-2S-methoxy-2-phenylacetamide] cannot be ordered by IC50: > 1 µM for the first, > 1 µM for the second.

`COc1ccc(C2(C(=O)NC(COCc3ccccc3)C(=O)Nc3ccc(Oc4ccccc4)cc3)CC2)cc1` (stereo not shown) [Compound 360, N-(2-oxo-1-{[(phenylmethyl)oxy]methyl}-2-{[4-(phenyloxy)phenyl]amino}ethyl)-1-(4-methoxyphenyl)cyclopropanecarboxamide] and `Cc1ccc(CC(=O)NC(COCc2ccccc2)C(=O)Nc2ccc(Oc3ccccc3)cc2)cc1` (stereo not shown) [Compound 372, N-(2-oxo-1-{[(phenylmethyl)oxy]methyl}-2-{[4-(phenyloxy)phenyl]amino}ethyl)-2-p-tolylacetamide] cannot be ordered by IC50: > 1 µM for the first, > 1 µM for the second.

`O=C(Cc1c(F)ccc(F)c1F)NC(COCc1ccccc1)C(=O)Nc1ccc(Oc2ccccc2)cc1` (stereo not shown) [Compound 361, N-(2-oxo-1-{[(phenylmethyl)oxy]methyl}-2-{[4-(phenyloxy)phenyl]amino}ethyl)-2-(2,3,6-trifluorophenyl)acetamide] and `O=C(Cc1ccc(F)cc1F)NC(COCc1ccccc1)C(=O)Nc1ccc(Oc2ccccc2)cc1` (stereo not shown) [Compound 363, N-(2-oxo-1-{[(phenylmethyl)oxy]methyl}-2-{[4-(phenyloxy)phenyl]amino}ethyl)-2-(2,4-difluorophenyl)acetamide] cannot be ordered by IC50: > 1 µM for the first, > 1 µM for the second.

Compared with `O=C(NC(COCc1ccccc1)C(=O)Nc1ccc(Oc2ccccc2)cc1)c1ccc(C(F)(F)F)cc1C(F)(F)F` (stereo not shown) [Compound 362, N-(2-oxo-1-{[(phenylmethyl)oxy]methyl}-2-{[4-(phenyloxy)phenyl]amino}ethyl)-2,4-bis(trifluoromethyl)benzamide], `Cc1cc(C(=O)NC(COCc2ccccc2)C(=O)Nc2ccc(Oc3ccccc3)cc2)ccc1Cl` (stereo not shown) [Compound 379, 4-chloro-3-methyl-N-(2-oxo-1-{[(phenylmethyl)oxy]methyl}-2-{[4-(phenyloxy)phenyl]amino}ethyl)benzamide] is higher in IC50: 0.3 to 1 µM for the first, > 1 µM for the second.

`Cn1cc(CC(=O)NC(COCc2ccccc2)C(=O)Nc2ccc(Oc3ccccc3)cc2)c2ccccc21` (stereo not shown) [Compound 364, N-(2-oxo-1-{[(phenylmethyl)oxy]methyl}-2-{[4-(phenyloxy)phenyl]amino}ethyl)-2-(1-methyl-1H-indol-3-yl)acetamide] and `O=C(Cc1cccc2ccccc12)NC(COCc1ccccc1)C(=O)Nc1ccc(Oc2ccccc2)cc1` (stereo not shown) [Compound 375, N-(2-oxo-1-{[(phenylmethyl)oxy]methyl}-2-{[4-(phenyloxy)phenyl]amino}ethyl)-2-(naphthalen-1-yl)acetamide] cannot be ordered by IC50: > 1 µM for the first, > 1 µM for the second.

`O=C(NC(COCc1ccccc1)C(=O)Nc1ccc(Oc2ccccc2)cc1)c1ccnc2ccccc12` (stereo not shown) [Compound 365, N-(2-oxo-1-{[(phenylmethyl)oxy]methyl}-2-{[4-(phenyloxy)phenyl]amino}ethyl)quinoline-4-carboxamide] and `O=C(COc1cccc2ccccc12)NC(COCc1ccccc1)C(=O)Nc1ccc(Oc2ccccc2)cc1` (stereo not shown) [Compound 371, N-(2-oxo-1-{[(phenylmethyl)oxy]methyl}-2-{[4-(phenyloxy)phenyl]amino}ethyl)-2-(naphthalen-1-yloxy)acetamide] cannot be ordered by IC50: > 1 µM for the first, > 1 µM for the second.

First: COc1cccc2cc(C(=O)NC(COCc3ccccc3)C(=O)Nc3ccc(Oc4ccccc4)cc3)oc12 (stereo not shown) [Compound 367, 7-(methyloxy)-N-(2-oxo-1-{[(phenylmethyl)oxy]methyl}-2-{[4-(phenyloxy)phenyl]amino}ethyl)-1-benzofuran-2-carboxamide]
Second: O=C(Cc1cccc(Cl)c1)NC(COCc1ccccc1)C(=O)Nc1ccc(Oc2ccccc2)cc1 (stereo not shown) [Compound 377, N-(2-oxo-1-{[(phenylmethyl)oxy]methyl}-2-{[4-(phenyloxy)phenyl]amino}ethyl)-2-(3-chlorophenyl)acetamide]
The IC50 of the first is higher: > 1 µM for the first, 0.3 to 1 µM for the second. The second is the more potent here.

First: O=C(COc1ccc(F)cc1)NC(COCc1ccccc1)C(=O)Nc1ccc(Oc2ccccc2)cc1 (stereo not shown) [Compound 368, N-(2-oxo-1-{[(phenylmethyl)oxy]methyl}-2-{[4-(phenyloxy)phenyl]amino}ethyl)-2-(4-fluorophenoxy)acetamide]
Second: O=C(COc1ccc(Cl)c(Cl)c1)NC(COCc1ccccc1)C(=O)Nc1ccc(Oc2ccccc2)cc1 (stereo not shown) [Compound 370, N-(2-oxo-1-{[(phenylmethyl)oxy]methyl}-2-{[4-(phenyloxy)phenyl]amino}ethyl)-2-(3,4-dichlorophenoxy)acetamide]
The IC50 of the first is higher: > 1 µM for the first, 0.3 to 1 µM for the second. The second is the more potent here.

`O=C(CCc1cccnc1)NC(COCc1ccccc1)C(=O)Nc1ccc(Oc2ccccc2)cc1` (stereo not shown) [Compound 369, N-(2-oxo-1-{[(phenylmethyl)oxy]methyl}-2-{[4-(phenyloxy)phenyl]amino}ethyl)-3-(pyridin-3-yl)propanamide] and `O=C(CSCc1ccccc1)NC(COCc1ccccc1)C(=O)Nc1ccc(Oc2ccccc2)cc1` (stereo not shown) [Compound 374, N-(2-oxo-1-{[(phenylmethyl)oxy]methyl}-2-{[4-(phenyloxy)phenyl]amino}ethyl)-2-(benzylthio)acetamide] cannot be ordered by IC50: > 1 µM for the first, > 1 µM for the second.

`Cc1ccc(C)c(CC(=O)NC(COCc2ccccc2)C(=O)Nc2ccc(Oc3ccccc3)cc2)c1` (stereo not shown) [Compound 373, N-(2-oxo-1-{[(phenylmethyl)oxy]methyl}-2-{[4-(phenyloxy)phenyl]amino}ethyl)-2-(2,5-dimethylphenyl)acetamide] and `COc1ccc(OC)c(CCC(=O)NC(COCc2ccccc2)C(=O)Nc2ccc(Oc3ccccc3)cc2)c1` (stereo not shown) [Compound 382, N-(2-oxo-1-{[(phenylmethyl)oxy]methyl}-2-{[4-(phenyloxy)phenyl]amino}ethyl)-3-(2,5-dimethoxyphenyl)propanamide] cannot be ordered by IC50: > 1 µM for the first, > 1 µM for the second.

First: CCOCCC(=O)NC(COCc1ccccc1)C(=O)Nc1ccc(Oc2ccccc2)cc1 (stereo not shown) [Compound 376, N-(2-oxo-1-{[(phenylmethyl)oxy]methyl}-2-{[4-(phenyloxy)phenyl]amino}ethyl)-3-ethoxypropanamide]
Second: CCCCc1ccc(C(=O)NC(COCc2ccccc2)C(=O)Nc2ccc(Oc3ccccc3)cc2)nc1 (stereo not shown) [Compound 378, 5-butyl-N-(2-oxo-1-{[(phenylmethyl)oxy]methyl}-2-{[4-(phenyloxy)phenyl]amino}ethyl)pyridine-2-carboxamide]
The IC50 of the first is higher: > 1 µM for the first, 0.3 to 1 µM for the second. The second is the more potent here.

For `N#Cc1ccc(C(=O)NC(COCc2ccccc2)C(=O)Nc2ccc(Oc3ccccc3)cc2)cc1` (stereo not shown) [Compound 380, 4-cyano-N-(2-oxo-1-{[(phenylmethyl)oxy]methyl}-2-{[4-(phenyloxy)phenyl]amino}ethyl)benzamide], the IC50 was > 1 µM.
